{
  "source": "paper PMC8351946",
  "about": "“Mle046 Is a Marine Mesophilic MHETase-Like Enzyme” (Frontiers in Microbiology, 2021)",
  "system": "T1, Mle046",
  "T1 construct": "signal peptide (first 27 residues) removed; His-tagged (pColdII), tag kept; codon-optimised gene, E. coli Shuffle T7; theoretical 62 kD",
  "experiment": "HPLC ([…] nm), MHET degradation rate, non-linear Michaelis-Menten fit",
  "type": "biochemical, metagenome: marine microbial consortium",
  "settings": "40 mM sodium phosphate pH 7.5, 30°C; rate declines at 2,700 μM MHET (fit up to 2,230 μM)",
  "data": [
    {"smiles": "O=C(O)c1ccc(C(=O)OCCO)cc1", "note": "[MHET]", "values": [
      {"measurement": "Km", "value": 2640, "unit": "µM"}
    ]}
  ]
}
